Measured values: patent US20240109897A1, “MODULATORS OF FPR1 AND METHODS OF USING THE SAME” (BEIJING TIANTAN HOSPITAL, priority 2021, published 2024)

Key:
Type in all cases: in vivo
ICH mice [1] = assay: MRI lesion, hematoma and perihematomal edema volume in intracerebral hemorrhage (ICH) mouse model; conditions: 5 mg/kg/daily i.p., first dose 1 h after ICH onset, vs vehicle
Source text: (§1) The intracerebral hemorrhage (ICH) model in mice was used to illustrate the protective benefits of the compounds of this disclosure, and FIG. 1 depicts the procedure in preparing this model. ICH was induced in C57 B/L6 male mice by the injection of an autologous blood or collagenase as previously described (Lauer et al., Circulation 124: 1654-1662 (2011); Rynkowski et al., Nat. Protoc. 3:122-128 (2008)). Mice were anesthetized using isoflurane inhalation and fixed on a stereotactic frame. A burr hole was drilled on the right side of the skull at 2.3 mm lateral to the midline and 0.5 mm anterior to the bregma. For the autologous blood model, 30 μl of non-heparinized blood was withdrawn from the angular vein. The first 5 μl blood was injected at a depth of 3 mm beneath the hole, and the rest 25 μl blood were injected at 3.7 mm beneath the hole with a rate of 1 μl/min. In the collagenase model, 0.038 U of the bacterial collagenase (in 0.5 μl saline) was infused to the striatum (0.5 mm anterior, 2.3 mm right lateral, and 3.5 mm deep relative to bregma) at a speed of 0.5 μl/min. Mice on the sham control were injected with an equal volume of saline. Throughout the procedure, the body temperature was maintained at 37° C. with a homeothermic blanket. After the surgery, mice were under observation with free access to food and water. […]
The total lesion volume was measured on the 7T small-animal MM scanner (Bruker, Corp., USA) as described (Li et al., 2017). The T2-weighted water imaging was recorded with following parameters (repetition time (TR)=4500 ms, echo time (TE)=65.5 ms, field of view (FOV)=28×28 mm^2, image matrix=256×256, at 0.5-mm slice thickness). […] The volumes were manually outlined and calculated by multiplying the sum of the volume by the distance between sections (0.5 mm) using MIPAV software. PHE volumes were calculated as total lesion volume minus hematoma volume. MRI data were analyzed by two investigators blinded to experimental groups.

ICH mice [2] = assay: Brain infiltrating neutrophils by flow cytometry in ICH mouse model; conditions: vs vehicle
Source text: as §1, with “μl/min.” for “μl/min. Mice on the sham control were injected with an equal volume of saline. Throughout the procedure, the body temperature was maintained at 37° C. with a homeothermic blanket. After the surgery, mice were under observation with free access to food and water.”
Single cell suspension of brain tissues was prepared and stained with fluorochrome-conjugated antibodies. […] Flow cytometric measurements were performed on a FACS Aria III (BD Bioscience) and analyzed using Flowjo 7.6 software (Informer Technologies, Ashland, OR, USA).

ICH mice [3] = assay: Brain water content in ICH mouse model; conditions: 5 mg/kg/daily i.p., first dose 1 h after ICH onset, 24 h, vs vehicle
Source text: as §1
Brain water content was measured at day 1 after ICH. […]

ICH mice [4] = assay: Neurological function assessment (mNSS, corner-turning test, rotarod test) in ICH mouse model; conditions: vs vehicle
Source text: as §1, with “blanket.” for “blanket. After the surgery, mice were under observation with free access to food and water.”
The neurological function assessment was performed by investigators who were blinded to the two treatment groups. The modified Neurological Severity Score (mNSS), corner-turning test, and rotarod test were conducted to evaluate the neuro-deficits of the ICH mice at defined time points as described (Li et al., Proc. Nat. Acad. Sci. USA 114:E396-E405 (2017)). mice were evaluated for motor function (muscle and abnormal movement), sensory (visual, tactile, and proprioceptive), and reflexes (pinna, corneal, startle reflexes). […] The corner-turning test was used to evaluate the sensorimotor damage to quantify the turning preference (right or left) upon approaching a 30° corner. […] The percentage of ipsilateral turns was then calculated. […] The duration of each mouse on the rod was recorded. […]

[5] = day 1 and day 3 after ICH, 5 mg/kg i.p.

Cc1ccc(O)c(-c2[nH]nc3c2C(c2ccc(C(F)(F)F)cc2)N(C2CCOCC2)C3=O)c1 (racemic) [Compound 1, Rac-3-(2-hydroxy-5-methylphenyl)-5-(tetrahydro-2H-pyran-4-yl)-4-(4-(trifluoromethyl)phenyl)-4,5-dihydropyrrolo[3,4-c]pyrazol-6(2H)-one]
perihematomal edema (PHE) size (ICH mice [1]): significantly reduced
reduction of total number of brain-infiltrated neutrophils (ICH mice [2]; Day 3, 5 mg/kg i.p.): 54%
reduction of total number of brain-infiltrated neutrophils (ICH mice [2]; Day-1, 5 mg/kg i.p.): 47%
total brain water content (ICH mice [3]): significantly reduced
neurological outcomes (ICH mice [4]; 5 mg/kg/daily i.p., first dose 1 h after ICH onset): improved
locomotor function scores (corner turn test, rotarod test) (ICH mice [4]; [5]): improved
modified neurological symptom score (mNSS) (ICH mice [4]; [5]): improved
